The source of these data is PubChem BioAssay (NCI).

Test systems include SK-MEL-2 melanoma; CAKI-1 renal; OVCAR-5 ovarian; MALME-3M melanoma; SF-268 CNS; LOX IMVI melanoma; 786-0 renal; HOP-92 NSCLC; RPMI-8226 leukemia; MCF7 breast.
Holding throughout (assay): NCI tumour cell line growth inhibition, 48 h

Molecules are shown by their SMILES.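 Grown in 96-well plates, cells were treated for 48 hours with each compound at five concentrations. Insufficient inhibition: endpoint recorded as highest concentration tested. The concentration for 50% growth inhibition is given as GI50. TGI denotes the concentration required for complete inhibition of growth.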

Turning to `CC1(C)OB(c2ccc(N(CCOS(C)(=O)=O)CCOS(C)(=O)=O)cc2)OC1(C)C`, the GI50 in the experiment on SK-MEL-2 melanoma was 28.6 µM; with CAKI-1 renal, 1.79 µM; in the experiment on OVCAR-5 ovarian it was 25.4 µM; in the experiment with MALME-3M melanoma, 12.9 µM; in the experiment with SF-268 CNS it was 23 µM; with LOX IMVI melanoma, 6.98 µM. Moreover, the GI50 is 3.41 µM with 786-0 renal, 10.2 µM in the experiment on HOP-92 NSCLC, 7.75 µM in the experiment on RPMI-8226 leukemia and 17.8 µM with MCF7 breast. The TGI was over 79.1 µM with SK-MEL-2 melanoma; 18.4 µM with CAKI-1 renal; 48.3 µM with OVCAR-5 ovarian; 46.1 µM in the experiment with MALME-3M melanoma; over 83.7 µM in the experiment with SF-268 CNS; over 53.3 µM in the experiment with LOX IMVI melanoma. Further, the TGI was 21.6 µM in the experiment on 786-0 renal, 48.6 µM in the experiment with HOP-92 NSCLC, over 72.5 µM with RPMI-8226 leukemia and over 83.8 µM in the experiment with MCF7 breast.

With `C[C@H]1CCC/C=C/C2CC(OC(=O)CN(C)C)CC2C(OC(=O)CN(C)C)/C=C/C(=O)O1` (some centres undefined), the GI50 is 0.224 µM in the experiment on SK-MEL-2 melanoma; 0.38 µM in the experiment on CAKI-1 renal; 0.44 µM in the experiment on OVCAR-5 ovarian; 0.171 µM in the experiment on MALME-3M melanoma; 0.484 µM in the experiment on SF-268 CNS; 1.16 µM in the experiment with LOX IMVI melanoma. In addition, the GI50 in the experiment on 786-0 renal was 0.107 µM; in the experiment on HOP-92 NSCLC it was 1.69 µM; with RPMI-8226 leukemia it was 0.712 µM; in the experiment with MCF7 breast, 0.31 µM. Also, the TGI in the experiment with SK-MEL-2 melanoma is 3.79 µM; in the experiment with CAKI-1 renal it was 7.69 µM; in the experiment on OVCAR-5 ovarian, 4.05 µM; in the experiment on MALME-3M melanoma, 0.371 µM; with SF-268 CNS, over 100 µM; in the experiment with LOX IMVI melanoma, 2.67 µM. The TGI is 12.5 µM with HOP-92 NSCLC, over 81.4 µM with RPMI-8226 leukemia and 1.53 µM in the experiment with MCF7 breast.

On to `Cc1nnc(C[C@@H]2C=C(c3ccc(Cl)cc3)c3ccccc3-n3c(C)nnc32)o1`, for which the GI50 with SK-MEL-2 melanoma is 10.2 µM; with CAKI-1 renal, 0.133 µM; in the experiment with OVCAR-5 ovarian it was 4.7 µM; in the experiment on MALME-3M melanoma it was 5.01 µM; in the experiment on SF-268 CNS, 13.1 µM; in the experiment with LOX IMVI melanoma it was 0.4 µM. Also, the GI50 in the experiment on 786-0 renal is 1.04 µM; in the experiment on HOP-92 NSCLC, 1.96 µM; in the experiment with RPMI-8226 leukemia, 0.135 µM; in the experiment on MCF7 breast, 0.221 µM. Moreover, the TGI with SK-MEL-2 melanoma is 47.6 µM; with CAKI-1 renal, 93.7 µM; in the experiment on OVCAR-5 ovarian, over 100 µM; in the experiment with MALME-3M melanoma it was 64.6 µM; in the experiment with SF-268 CNS it was 73.5 µM; in the experiment with LOX IMVI melanoma it was 16 µM. Also, the TGI with 786-0 renal was 38.7 µM; in the experiment on HOP-92 NSCLC, over 75.1 µM; in the experiment on RPMI-8226 leukemia it was 19.8 µM; in the experiment with MCF7 breast, over 100 µM.

Consider `COC(=O)c1cc(-c2ccc3ccccc3c2)[nH]c(=O)c1C#N`, for which the TGI in the experiment with SK-MEL-2 melanoma, in the experiment with CAKI-1 renal, with OVCAR-5 ovarian, in the experiment on MALME-3M melanoma, in the experiment with SF-268 CNS and in the experiment on LOX IMVI melanoma was over 100 µM in each case. Moreover, the TGI with 786-0 renal, in the experiment with HOP-92 NSCLC, with RPMI-8226 leukemia and with MCF7 breast was over 100 µM throughout.

With `CC/C=C\C[C@H]1C/C=C2/C(=O)C=C[C@H]2C/C=C\CCCC(=O)O1`, the GI50 in the experiment on SK-MEL-2 melanoma is 3.77 µM; in the experiment on CAKI-1 renal, 2.29 µM; in the experiment with OVCAR-5 ovarian it was 3.99 µM; in the experiment with MALME-3M melanoma, 7.81 µM; in the experiment on SF-268 CNS it was 3.77 µM; in the experiment on LOX IMVI melanoma, 1.68 µM. In addition, the GI50 was 3.24 µM in the experiment on 786-0 renal, 2.53 µM in the experiment with HOP-92 NSCLC, 1.59 µM in the experiment with RPMI-8226 leukemia and 2.21 µM in the experiment on MCF7 breast. The TGI came out at 12.6 µM in the experiment with SK-MEL-2 melanoma; 8.23 µM in the experiment on CAKI-1 renal; 16.8 µM in the experiment with OVCAR-5 ovarian; 17.4 µM with MALME-3M melanoma; 17.8 µM in the experiment on SF-268 CNS; 6.7 µM in the experiment with LOX IMVI melanoma. In addition, the TGI in the experiment with 786-0 renal is 10.2 µM; in the experiment on HOP-92 NSCLC, 10.1 µM; in the experiment with RPMI-8226 leukemia, 4.82 µM; with MCF7 breast, 12.4 µM.

With `Cc1cc(S(=O)(=O)/N=C(\N)Nc2cccc(O)c2)c(SCc2ccccc2)cc1Cl`, the GI50 was 15.7 µM with SK-MEL-2 melanoma; 16 µM in the experiment on CAKI-1 renal; 23.4 µM in the experiment on OVCAR-5 ovarian; 27.9 µM with MALME-3M melanoma; 17.4 µM with SF-268 CNS; 20.5 µM in the experiment on LOX IMVI melanoma. Moreover, the GI50 is 16.9 µM in the experiment on 786-0 renal, 9.89 µM with HOP-92 NSCLC, 5.81 µM in the experiment on RPMI-8226 leukemia and 11.5 µM with MCF7 breast. In addition, the TGI came out at 34.9 µM with SK-MEL-2 melanoma; 34.2 µM in the experiment with CAKI-1 renal; 53 µM with OVCAR-5 ovarian; 63.9 µM in the experiment on MALME-3M melanoma; 69 µM in the experiment with SF-268 CNS; 66.8 µM in the experiment with LOX IMVI melanoma. The TGI is 33.5 µM with 786-0 renal, 36.3 µM in the experiment on HOP-92 NSCLC, over 100 µM with RPMI-8226 leukemia and 78.9 µM in the experiment on MCF7 breast.

As to `Cc1cc(F)c(C(=O)Nc2cccc(-c3nncn3C(C)C)n2)cc1-n1cnc(C2CC2)c1`, the GI50 in the experiment with SK-MEL-2 melanoma is 23.9 µM; with CAKI-1 renal, 10.5 µM; with OVCAR-5 ovarian it was 19.9 µM; in the experiment on MALME-3M melanoma, 23.3 µM; in the experiment with SF-268 CNS it was 21.5 µM; with LOX IMVI melanoma it was 14.4 µM. The GI50 in the experiment with 786-0 renal is 17.1 µM; with HOP-92 NSCLC, 8.23 µM; in the experiment with RPMI-8226 leukemia it was 7.54 µM; with MCF7 breast it was 9.48 µM. Further, the TGI in the experiment with SK-MEL-2 melanoma was 58.1 µM; in the experiment on CAKI-1 renal, over 100 µM; in the experiment on OVCAR-5 ovarian, over 100 µM; in the experiment on MALME-3M melanoma, 72.1 µM; in the experiment with SF-268 CNS, over 100 µM; in the experiment with LOX IMVI melanoma, 35.9 µM. The TGI in the experiment on 786-0 renal was over 100 µM; with HOP-92 NSCLC, over 100 µM; with RPMI-8226 leukemia it was 35.3 µM; with MCF7 breast, 55.2 µM.

For `COc1ccc(-c2nn(-c3cccc(Cl)c3)cc2/C=C2\NC(=S)N(c3ccc(Cl)cc3)C2=O)cc1`, the GI50 was 4.15 µM with SK-MEL-2 melanoma; 4.79 µM with CAKI-1 renal; 6.31 µM in the experiment with OVCAR-5 ovarian; 5.03 µM in the experiment on MALME-3M melanoma; 7.41 µM with SF-268 CNS; 5.97 µM in the experiment on LOX IMVI melanoma. For the same compound, the GI50 was 5.57 µM in the experiment with 786-0 renal, 1.84 µM in the experiment on HOP-92 NSCLC, 3.53 µM in the experiment with RPMI-8226 leukemia and 5.6 µM in the experiment with MCF7 breast. The TGI with SK-MEL-2 melanoma was 9.61 µM; in the experiment on CAKI-1 renal, 13.2 µM; in the experiment with OVCAR-5 ovarian, over 25 µM; in the experiment with MALME-3M melanoma, 11.3 µM; in the experiment on SF-268 CNS, over 25 µM; with LOX IMVI melanoma it was over 25 µM. Moreover, the TGI in the experiment with 786-0 renal was over 25 µM; in the experiment with HOP-92 NSCLC, 8.07 µM; with RPMI-8226 leukemia, 15.9 µM; in the experiment with MCF7 breast, over 25 µM.
